Source: US10954214B2 (Janssen Pharmaceutica NV, priority 2016, dated 2021)
pIC50: −log10 of the molar value.

Key:
[1] = system: IL10 secretion by OCI-LY3 ABC-DLBCL cells; assay: Human IL10 Mesoscale assay (OCI-LY3); type: cell-based; conditions: Homo sapiens, 24 h
Procedure, shortened: (§1)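 Read-out: MSD electrochemiluminescence of IL6/IL10 in supernatants. Cells (100,000/well, no beta-mercaptoethanol) were exposed to compounds at 15 μM down to 58.6 nM, 1:2 dilutions, for 24 h at 37° C, 5% CO2. Normalised between DMSO (high) and RN486 (low) controls.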

[2] = system: IL6 secretion by OCI-LY3 ABC-DLBCL cells; assay: Human IL6 Mesoscale assay (OCI-LY3); type: cell-based; conditions: Homo sapiens, 24 h
Procedure, shortened: as §1

[3] = system: IL6 secretion by TMD8 ABC-DLBCL cells; assay: Human IL6 Mesoscale assay (TMD-8); type: cell-based; conditions: Homo sapiens, TMD8; TMD-8 cells, 24 h
Procedure, shortened: as §1

[4] = target: full-length MALT1 protein (Strep-MALT1(1-824)-His) (Homo sapiens (Human), UniProt Q9UDY8); assay: MALT1 Biochemical Protease Assay (Ac-LRSR-AMC substrate); conditions: 10 nM FL MALT1, 200 μM Ac-LRSR-AMC, 4 h at RT; read-out: MALT1_Biochemical activity (Ac-LRSR-amc) IC50
Chain of full-length MALT1 protein (Strep-MALT1(1-824)-His) (Q9UDY8 whole entry): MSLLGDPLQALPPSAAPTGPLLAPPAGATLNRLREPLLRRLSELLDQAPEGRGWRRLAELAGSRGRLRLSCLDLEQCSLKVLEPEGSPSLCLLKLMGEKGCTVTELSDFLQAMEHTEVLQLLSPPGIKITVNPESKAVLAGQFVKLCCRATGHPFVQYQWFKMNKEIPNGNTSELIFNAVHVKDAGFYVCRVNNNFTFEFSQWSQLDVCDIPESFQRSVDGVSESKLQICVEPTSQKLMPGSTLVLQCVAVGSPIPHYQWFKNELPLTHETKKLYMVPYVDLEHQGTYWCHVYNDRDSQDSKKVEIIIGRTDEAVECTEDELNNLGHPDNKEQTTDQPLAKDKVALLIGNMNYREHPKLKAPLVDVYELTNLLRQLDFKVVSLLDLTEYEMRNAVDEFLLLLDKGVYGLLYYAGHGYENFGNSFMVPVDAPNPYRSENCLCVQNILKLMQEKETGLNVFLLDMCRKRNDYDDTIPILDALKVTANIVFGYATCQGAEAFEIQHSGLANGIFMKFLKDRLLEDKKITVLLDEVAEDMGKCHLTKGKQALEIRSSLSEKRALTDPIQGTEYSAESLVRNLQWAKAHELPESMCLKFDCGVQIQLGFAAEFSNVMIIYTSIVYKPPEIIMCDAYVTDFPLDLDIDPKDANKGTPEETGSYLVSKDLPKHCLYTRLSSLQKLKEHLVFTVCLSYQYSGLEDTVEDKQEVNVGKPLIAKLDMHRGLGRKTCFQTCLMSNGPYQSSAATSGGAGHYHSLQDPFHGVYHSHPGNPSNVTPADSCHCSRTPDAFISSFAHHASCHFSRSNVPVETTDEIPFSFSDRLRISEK
Procedure, shortened: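 Fluorescence from AMC release off the quenched LRSR substrate was read after a 4 h reaction at RT. Values were normalised to no-enzyme and uninhibited controls and fitted for IC50 and Hill coefficient.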

[5] = system: IL10 secretion by TMD8 ABC-DLBCL cells; assay: Human IL10 Mesoscale assay (TMD-8); type: cell-based; conditions: Homo sapiens, TMD8; TMD-8 cells, 24 h
Procedure, shortened: as §1

**Q.** `NC(=O)c1cnn(-c2ccc(NC(=O)c3cnn(-c4cccc5ncccc45)c3C(F)(F)F)cc2Cl)n1` [Cpd 244, 2-(2-chloro-4-(1-(quinolin-5-yl)-5-(trifluoromethyl)-1H-pyrazole-4-carboxamido)phenyl)-2H-1,2,3-triazole-4-carboxamide] was tested. Which pIC50 [1] did it give?
**A.** 6.81

**Q.** What about the pIC50 [2] of the same compound?
**A.** 6.76

**Q.** What about the pIC50 [3] of the same compound?
**A.** 6.13

**Q.** And the pIC50 [4]?
**A.** 6.40

**Q.** What about the pIC50 [5] of the same compound?
**A.** 6.61

**Q.** With `Cn1ncc2c(-n3ncc(C(=O)Nc4cnc(-n5nccn5)c(C#N)c4)c3C(F)(F)F)ccnc21` [Cpd 241, N-(5-cyano-6-(2H-1,2,3-triazol-2-yl)pyridin-3-yl)-1-(1-methyl-1H-pyrazolo[3,4-b]pyridin-4-yl)-5-(trifluoromethyl)-1H-pyrazole-4-carboxamide] as the compound, how does the pIC50 [1] read?
**A.** 7.43

**Q.** And the pIC50 [2]?
**A.** 7.29

**Q.** What about the pIC50 [3] of the same compound?
**A.** 7.31

**Q.** What about the pIC50 [4] of the same compound?
**A.** 6.25

**Q.** And the pIC50 [5]?
**A.** 7.16

**Q.** How did the pIC50 [1] turn out when `N#Cc1cc(NC(=O)c2cnn(-c3cnc4ccccn34)c2C(F)(F)F)cnc1-n1nccn1` [Cpd 189, N-(5-cyano-6-(2H-1,2,3-triazol-2-yl)pyridin-3-yl)-1-(imidazo[1,2-a]pyridin-3-yl)-5-(trifluoromethyl)-1H-pyrazole-4-carboxamide] was run?
**A.** 7.57

**Q.** And the pIC50 [2]?
**A.** 7.41

**Q.** What about the pIC50 [3] of the same compound?
**A.** 6.97

**Q.** And the pIC50 [4]?
**A.** 7.11

**Q.** And the pIC50 [5]?
**A.** 7.20

**Q.** Which results are given for `Cc1nc2cccc(-n3ncc(C(=O)Nc4cnc(-n5nccn5)c(C#N)c4)c3C(F)(F)F)c2o1` [Cpd 271, N-(5-cyano-6-(2H-1,2,3-triazol-2-yl)pyridin-3-yl)-1-(2-methylbenzo[d]oxazol-7-yl)-5-(trifluoromethyl)-1H-pyrazole-4-carboxamide]?
**A.** pIC50 [1]: 7.02; pIC50 [2]: 6.95; pIC50 [4]: 6.84

**Q.** With `Cc1nc2cccc(-n3ncc(C(=O)Nc4cnc(-n5nccn5)c(C#N)c4)c3C(F)(F)F)n2n1` [Cpd 254, N-(5-cyano-6-(2H-1,2,3-triazol-2-yl)pyridin-3-yl)-1-(2-methyl-[1,2,4]triazolo[1,5-a]pyridin-5-yl)-5-(trifluoromethyl)-1H-pyrazole-4-carboxamide] as the compound, how does the pIC50 [1] read?
**A.** 7.10

**Q.** What about the pIC50 [2] of the same compound?
**A.** 7.09

**Q.** And the pIC50 [4]?
**A.** 6.55

**Q.** How did the pIC50 [1] turn out when `O=C(Nc1cnc(-c2ncco2)c(Cl)c1)c1cnn(-c2ccc(F)c3ncccc23)c1C(F)(F)F` [Cpd 288, N-(5-chloro-6-(oxazol-2-yl)pyridin-3-yl)-1-(8-fluoroquinolin-5-yl)-5-(trifluoromethyl)-1H-pyrazole-4-carboxamide] was run?
**A.** 7.04

**Q.** What about the pIC50 [2] of the same compound?
**A.** 6.60

**Q.** And the pIC50 [4]?
**A.** 7.02

**Q.** With `O=C(Nc1cnc(-n2nccn2)c(Cl)c1)c1cnn(-c2cccc3[nH]c(=O)ccc23)c1C(F)(F)F` [Cpd 344, N-(5-chloro-6-(2H-1,2,3-triazol-2-yl)pyridin-3-yl)-1-(2-oxo-1,2-dihydroquinolin-5-yl)-5-(trifluoromethyl)-1H-pyrazole-4-carboxamide] as the compound, how does the pIC50 [1] read?
**A.** 7.28

**Q.** And the pIC50 [2]?
**A.** 7.28

**Q.** What about the pIC50 [4] of the same compound?
**A.** 5.91

**Q.** How did the pIC50 [1] turn out when `Cc1nc(-n2nccn2)c(Cl)cc1NC(=O)c1cnn(-c2cc(=O)[nH]c3ccccc23)c1C(F)(F)F` [Cpd 358, N-(5-chloro-2-methyl-6-(2H-1,2,3-triazol-2-yl)pyridin-3-yl)-1-(2-oxo-1,2-dihydroquinolin-4-yl)-5-(trifluoromethyl)-1H-pyrazole-4-carboxamide] was run?
**A.** 6.90

**Q.** And the pIC50 [2]?
**A.** 6.91

**Q.** And the pIC50 [4]?
**A.** 7.72

**Q.** With `O=C(Nc1cnc(-n2nccn2)c(Cl)c1)c1cnn(-c2cccc3ncccc23)c1Cl` [Cpd 187, 5-Chloro-N-(5-chloro-6-(2H-1,2,3-triazol-2-yl)pyridin-3-yl)-1-(quinolin-5-yl)-1H-pyrazole-4-carboxamide] as the compound, how does the pIC50 [1] read?
**A.** 6.95

**Q.** What about the pIC50 [2] of the same compound?
**A.** 6.79

**Q.** What about the pIC50 [4] of the same compound?
**A.** 6.75

**Q.** How did the pIC50 [1] turn out when `Cc1nc2ccccn2c1-n1ncc(C(=O)Nc2cnc(-n3nccn3)c(C#N)c2)c1C(F)(F)F` [Cpd 295, N-(5-cyano-6-(2H-1,2,3-triazol-2-yl)pyridin-3-yl)-1-(2-methylimidazo[1,2-a]pyridin-3-yl)-5-(trifluoromethyl)-1H-pyrazole-4-carboxamide] was run?
**A.** 6.14

**Q.** And the pIC50 [2]?
**A.** 5.90

**Q.** What about the pIC50 [4] of the same compound?
**A.** 7.13

**Q.** With `COc1ncc(-n2ncc(C(=O)Nc3cnc(-n4nccn4)c(Cl)c3)c2C(F)(F)F)c2ccccc12` [Cpd 421, N-(5-chloro-6-(2H-1,2,3-triazol-2-yl)pyridin-3-yl)-1-(1-methoxyisoquinolin-4-yl)-5-(trifluoromethyl)-1H-pyrazole-4-carboxamide] as the compound, how does the pIC50 [1] read?
**A.** 6.32

**Q.** What about the pIC50 [2] of the same compound?
**A.** 6.34

**Q.** What about the pIC50 [4] of the same compound?
**A.** 7.70

**Q.** How did the pIC50 [1] turn out when `O=C(Nc1cnc(-n2nnc3cccnc32)c(Cl)c1)c1cnn(-c2cccc3ncccc23)c1C(F)(F)F` [Cpd 165, N-(6-(3H-[1,2,3]triazolo[4,5-b]pyridin-3-yl)-5-chloropyridin-3-yl)-1-(quinolin-5-yl)-5-(trifluoromethyl)-1H-pyrazole-4-carboxamide] was run?
**A.** 6.47

**Q.** What about the pIC50 [2] of the same compound?
**A.** 6.35

**Q.** And the pIC50 [4]?
**A.** 6.61

**Q.** What does the source list for `Cc1nc(-c2ccn(C)n2)c(Cl)cc1NC(=O)c1cnn(-c2cnc(N)c3ccccc23)c1C(F)(F)F` [Cpd 333, 1-(1-aminoisoquinolin-4-yl)-N-(5-chloro-2-methyl-6-(1-methyl-1H-pyrazol-3-yl)pyridin-3-yl)-5-(trifluoromethyl)-1H-pyrazole-4-carboxamide]?
**A.** pIC50 [1]: 6.91; pIC50 [2]: 6.81; pIC50 [4]: 6.61

**Q.** How did the pIC50 [1] turn out when `N#Cc1cc(NC(=O)c2cnn(-c3cccc4nc(N)sc34)c2C(F)(F)F)cnc1-n1nccn1` [Cpd 282, 1-(2-aminobenzo[d]thiazol-7-yl)-N-(5-cyano-6-(2H-1,2,3-triazol-2-yl)pyridin-3-yl)-5-(trifluoromethyl)-1H-pyrazole-4-carboxamide] was run?
**A.** 6.38

**Q.** And the pIC50 [2]?
**A.** 6.13

**Q.** And the pIC50 [4]?
**A.** 6.91

**Q.** Which results are given for `Cn1ccc(-c2ncc(NC(=O)c3cnn(-c4cccc5nnsc45)c3C(F)(F)F)cc2Cl)n1` [Cpd 293, 1-(benzo[d][1,2,3]thiadiazol-7-yl)-N-(5-chloro-6-(1-methyl-1H-pyrazol-3-yl)pyridin-3-yl)-5-(trifluoromethyl)-1H-pyrazole-4-carboxamide]?
**A.** pIC50 [1]: 6.60; pIC50 [2]: 6.35; pIC50 [4]: 7.12

**Q.** How did the pIC50 [1] turn out when `O=C(Nc1ccc(-c2n[nH]c(=O)[nH]2)c(Cl)c1)c1cnn(-c2cccc3ncccc23)c1C(F)(F)F` [Cpd 166, N-(3-chloro-4-(5-oxo-4,5-dihydro-1H-1,2,4-triazol-3-yl)phenyl)-1-(quinolin-5-yl)-5-(trifluoromethyl)-1H-pyrazole-4-carboxamide] was run?
**A.** 6.32

**Q.** And the pIC50 [2]?
**A.** 6.34

**Q.** And the pIC50 [4]?
**A.** 6.64

**Q.** How did the pIC50 [1] turn out when `Cc1cnn(-c2nc(C)c(NC(=O)c3cnn(-c4cnc(N)c5ccccc45)c3C(F)(F)F)cc2Cl)n1` [Cpd 341, 1-(1-aminoisoquinolin-4-yl)-N-(5-chloro-2-methyl-6-(4-methyl-2H-1,2,3-triazol-2-yl)pyridin-3-yl)-5-(trifluoromethyl)-1H-pyrazole-4-carboxamide] was run?
**A.** 6.41

**Q.** What about the pIC50 [2] of the same compound?
**A.** 6.32

**Q.** And the pIC50 [4]?
**A.** 7.60

**Q.** How did the pIC50 [1] turn out when `O=C(Nc1cnc(-n2nccn2)c(Cl)c1)c1cnn(-c2noc3ccccc23)c1C(F)(F)F` [Cpd 284, 1-(benzo[d]isoxazol-3-yl)-N-(5-chloro-6-(2H-1,2,3-triazol-2-yl)pyridin-3-yl)-5-(trifluoromethyl)-1H-pyrazole-4-carboxamide] was run?
**A.** 6.14

**Q.** What about the pIC50 [2] of the same compound?
**A.** 6.23

**Q.** And the pIC50 [4]?
**A.** 6.92

**Q.** `NC(=O)c1cn(-c2ncc(NC(=O)c3cnn(-c4cccc5ncccc45)c3C(F)(F)F)cc2Cl)nn1` [Cpd 246, 1-(3-chloro-5-(1-(quinolin-5-yl)-5-(trifluoromethyl)-1H-pyrazole-4-carboxamido)pyridin-2-yl)-1H-1,2,3-triazole-4-carboxamide] was tested. Which pIC50 [1] did it give?
**A.** 7.20

**Q.** And the pIC50 [2]?
**A.** 6.87

**Q.** What about the pIC50 [4] of the same compound?
**A.** 6.42

**Q.** What does the source list for `O=C(Nc1cnc(-n2nccn2)c(Cl)c1)c1cnn(-c2cnc(Cl)c3ccccc23)c1C(F)(F)F` [Cpd 285, N-(5-chloro-6-(2H-1,2,3-triazol-2-yl)pyridin-3-yl)-1-(1-chloroisoquinolin-4-yl)-5-(trifluoromethyl)-1H-pyrazole-4-carboxamide]?
**A.** pIC50 [1]: 6.69; pIC50 [2]: 6.64; pIC50 [4]: 6.95

**Q.** How did the pIC50 [1] turn out when `N#Cc1cc(NC(=O)c2cnn(-c3ccnc4cnccc34)c2C(F)(F)F)cnc1-n1nccn1` [Cpd 276, N-(5-cyano-6-(2H-1,2,3-triazol-2-yl)pyridin-3-yl)-1-(1,7-naphthyridin-4-yl)-5-(trifluoromethyl)-1H-pyrazole-4-carboxamide] was run?
**A.** 6.93

**Q.** What about the pIC50 [2] of the same compound?
**A.** 6.73

**Q.** And the pIC50 [4]?
**A.** 6.86

**Q.** How did the pIC50 [1] turn out when `Cc1cc(-n2nccn2)c(Cl)cc1NC(=O)c1cnn(-c2cnc(N)c3ccccc23)c1C(F)(F)F` [Cpd 335, 1-(1-aminoisoquinolin-4-yl)-N-(5-chloro-2-methyl-4-(2H-1,2,3-triazol-2-yl)phenyl)-5-(trifluoromethyl)-1H-pyrazole-4-carboxamide] was run?
**A.** 7.22

**Q.** And the pIC50 [2]?
**A.** 6.88

**Q.** What about the pIC50 [4] of the same compound?
**A.** 6.76

**Q.** With `Cc1nc(-n2nccn2)c(Br)cc1NC(=O)c1cnn(-c2cnc(N)c3ccccc23)c1C(F)(F)F` [Cpd 343, 1-(1-aminoisoquinolin-4-yl)-N-(5-bromo-2-methyl-6-(2H-1,2,3-triazol-2-yl)pyridin-3-yl)-5-(trifluoromethyl)-1H-pyrazole-4-carboxamide] as the compound, how does the pIC50 [1] read?
**A.** 7.43

**Q.** What about the pIC50 [2] of the same compound?
**A.** 7.16

**Q.** And the pIC50 [4]?
**A.** 7.70

**Q.** What does the source list for `CNC(=O)c1ncc(NC(=O)c2cnn(-c3cccc4c(=O)[nH]ccc34)c2C(F)(F)F)cc1Cl` [Cpd 352, 3-chloro-N-methyl-5-(1-(1-oxo-1,2-dihydroisoquinolin-5-yl)-5-(trifluoromethyl)-1H-pyrazole-4-carboxamido)picolinamide]?
**A.** pIC50 [1]: 7.06; pIC50 [2]: 6.89; pIC50 [4]: 7.36
